Measured values as given in ChEMBL document CHEMBL4406873, “Optimization of the chromone scaffold through QSAR and docking studies: Identification of potent inhibitors of ABCG2” (Eur J Med Chem, 2019).

Biological target: T1, Broad substrate specificity ATP-binding cassette transporter ABCG2 (Homo sapiens, UniProt Q9UNQ0)
T1 sequence (Q9UNQ0 whole entry): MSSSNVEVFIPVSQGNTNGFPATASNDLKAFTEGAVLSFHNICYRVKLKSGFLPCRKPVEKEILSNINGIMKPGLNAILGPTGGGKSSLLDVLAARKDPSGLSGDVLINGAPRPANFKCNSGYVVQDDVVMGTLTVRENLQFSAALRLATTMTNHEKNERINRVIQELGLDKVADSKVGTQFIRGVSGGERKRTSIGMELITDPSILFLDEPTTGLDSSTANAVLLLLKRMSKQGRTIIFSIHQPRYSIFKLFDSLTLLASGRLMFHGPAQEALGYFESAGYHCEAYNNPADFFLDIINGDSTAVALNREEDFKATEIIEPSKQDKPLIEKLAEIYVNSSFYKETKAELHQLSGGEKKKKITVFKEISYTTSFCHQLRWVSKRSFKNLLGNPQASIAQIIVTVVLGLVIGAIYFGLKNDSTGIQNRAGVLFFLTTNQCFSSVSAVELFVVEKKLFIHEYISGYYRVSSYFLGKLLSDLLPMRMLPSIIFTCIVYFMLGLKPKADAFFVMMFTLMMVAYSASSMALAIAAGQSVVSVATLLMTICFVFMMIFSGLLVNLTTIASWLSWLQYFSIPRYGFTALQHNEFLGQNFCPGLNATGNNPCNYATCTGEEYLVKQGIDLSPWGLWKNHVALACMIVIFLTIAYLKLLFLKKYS
Assay: Inhibition of ABCG2 (unknown origin) expressed in HEK293 cells assessed as increase in mitoxantrone accumulation incubated for 30 mins by flow cytometric method
Assay type: cell-based

Row | SMILES | EC50 [nM]
1 | COc1ccc2[nH]cc(CCNC(=O)c3cc(=O)c4c(OCc5cc(Br)cc(Br)c5)cccc4o3)c2c1 | 97
2 | COc1ccc2[nH]cc(CCNC(=O)c3cc(=O)c4c(OCc5ccc(Br)cc5Br)cccc4o3)c2c1 | 46
